Experiments:
[1] = system: wild-type Mlh1-Pms1; assay: Mlh1-Pms1 endonuclease assay; assay type: biochemical, S. cerevisiae; conditions: 7.5 nM PCNA, 30 nM RFC-Δ1N, 35 nM Mlh1-Pms1, 1 mM MnSO4, 20 mM Tris (pH 7.5), 0.5 mM ATP, 100 ng supercoiled pRS425, 30 °C, 30 min, agarose gel
[2] = system: end-blocked, mispair-containing DNA; assay type: binding; conditions: 20 nM Msh2-Msh6, 40 nM Mlh1-Pms1, 250 μM ATP, 25 °C, 20 μL/min, 236-bp DNA, Biacore T100
[3] = system: Pms1; assay: Interaction of mutant Mlh1 with Pms1 during protein purification; assay type: binding, S. cerevisiae
[4] = system: 3′ AflIII CC substrate; assay: Reconstituted Exo1- and Mlh1-Pms1-dependent MMR reaction in vitro; assay type: biochemical
[5] = system: supercoiled DNA plasmid; assay type: biochemical

Row | Substance | Mlh1-Pms1 endonuclease activity ([1]; peptide-to-heterodimer molar ratio of 250:1) [%] | Mlh1-Pms1 endonuclease activity ([1]; peptide-to-heterodimer molar ratio of 1,000:1) [%] | recruitment by Msh2-Msh6, increase in response units [2] | ability to interact with Pms1 [3] | MMR in vitro (in words) [4] | nicking activity relative to wild-type Mlh1-Pms1 ([5]; % of the nicking activity of the wild-type Mlh1-Pms1 protein, RFC-Δ1N and PCNA, ATP, 35 nM Mlh1-Pms1, 30 °C, 30 min, in triplicate) [%] | endonuclease activity (in words) ([5]; in vitro, with PCNA, RFC-Δ1N and ATP)
1 | KAKRQENKLVRIDASQAKITSFLSS [wild-type peptide] | ~70 | ~50 |  |  |  |  | 
2 | Mlh1(RADA)-Pms1 |  |  | robust increase in the response units | did not observe any defects in the ability of Mlh1(RADA) to interact with Pms1 | defective for MMR | ~10 | defective for MMR and endonuclease activity in vitro
3 | Mlh1-Pms1: wild-type S. cerevisiae Mlh1-Pms1 endonuclease heterodimer |  |  | robust increase in the response units |  |  |  | 

From paper PMC9586283 (Proceedings of the National Academy of Sciences of the …, 2022)
